Measured values reported in patent US9980928B2, “Hydroxy aliphatic substituted phenyl aminoalkyl ether derivatives” (PROUS INSTITUTE FOR BIOMEDICAL RESEARCH, S.A., priority 2012, dated 2018).
“Also recorded” adds a separate entry of the source.

Key:
[1] = test system: fmr1 KO mice and wild type mice; assay: Social behavior test in Fragile X (fmr1 KO) mouse model; format: in vivo; conditions: 30 mg/kg i.p. acute
Procedure: FIG. 4A plots the time (s) that the test mouse devotes to exploring two cylinders: a first cylinder containing a familiar genotype-matched juvenile stimulus mouse and a second cylinder containing a novel stimulus mouse and the total time of exploration (both cylinders) during a 10 min session. FIG. 4B Plots the percentage of time spent near the two cylinders during the 10 min session. FIG. 4C plots the Discrimination index (time exploring the novel stimulus−time exploring the familiar stimulus/total time of exploration×100).
N=10-12 mice per group. Mice had received an acute i.p. injection of saline (WT 1st bar, fmr1 KO 3rd bar) or 30 mg/kg Example 2 (Wild Type 2nd bar, fmr1 KO 4th bar) 24 h before the session. Data are expressed as mean±S.E.M. Two way ANOVA Treatment effect Φ p<0.05, Genotype x Treatment interaction p<0.05, Bonferroni as post hoc ***p<0.001, **p<0.01, *p<0.05.
Example 2 effects on social disability in a model of Fmr1 KO was performed. Social behavior was examined on an open-field that consisted of an arena (70 cm long×70 cm wide×30 cm high) made of Plexiglas. An overhead camera connected to the video-tracking software SMART (Panlab, Spain) was used to monitor the animal's behavior. The experimental design included three sessions:
1) Habituation session Animals were habituated for 10 min to an arena containing two empty transparent cylinders (30 cm diameter×40 cm high) made of Plexiglas. The cylinders were perforated to have interaction points and were located on two corners of the open field. Time exploring the cylinders was registered along the 10 min duration. After the habituation session mice received an acute injection of either saline or Example 2 (30 mg/kg i.p.) and replaced on their cages. 2) Social interaction 24 h later, animals were replaced to the arena containing the two cylinders, one cylinder was empty and the other one contained a stranger individual (stimulus). The time exploring the two cylinders was registered for 10 minutes. The stimulus individual was always a juvenile mouse (less than two months of age), to avoid the group hierarchy and aggressiveness towards non familiar individuals that show adult male mice. In addition, the stimulus individual was genotype matched with the testing mouse. The position of the stimulus individual was counterbalanced between animals. After the sociability session mice received an acute injection of either saline or Example 2 (30 mg/kg i.p.). 3) Social recognition 24 h later, animals were replaced to the arena containing the two cylinders, one cylinder contained the same stimulus individual presented during the social interaction session (familiar) and the other contained a novel stimulus individual. Both stimuli were juvenile animals and genotype matched. The position of the familiar stimulus remained the same as it was in the social interaction session, and counterbalanced between animals. Once the subject mice finished the test they remained individually housed in a separate cage until the other cage partner finalized the test, to avoid exposition to olfactory cues from stimuli mice. In all cases, those mice from the same cage were never exposed to the same stimuli, either familiar or novel. The time exploring the two cylinders was registered for 10 minutes. The discrimination index was calculated as time exploring the novel stimulus mouse−time exploring the familiar stimulus mouse/total time of exploration×100. The arena and cylinders were deeply cleaned between animals to avoid olfactory cues. All measures of exploration were manually registered by the experimenter blind to genotype and treatment. Exploratory behavior was defined as the animal directing its nose towards the cylinder at a distance of <2 cm. A proximal zone of 14 cm from the cylinders was defined as interaction zone and the time spent in these zones was registered as index of exploratory behavior.

p-ERK = assay: Western blot of p-ERK in mouse brain after i.p. administration; format: in vivo, mice; conditions: 30 mg/kg i.p., hippocampus, 1 hour after administration; hydrochloride
Procedure: Acute biochemical neuronal changes in neurotrophin and synaptic plasticity signaling after the administration of the compounds to be tested may be studied by Western blot assessment of ERK, Akt, phospholipase C (PLC), Trk-B, […] and CAMK II phosphorylation assays in the hippocampus, striatum and cortex at 1 hour post-administration.
Two groups of animals were used: C57BL control mice and mice treated by i.p. administration of a dose of 30 mg/kg of the compound to be tested diluted in saline solution or control saline (n=6 per group).
Animals were sacrificed by cervical dislocation at the corresponding time and different brain regions were dissected (frontal cortex, striatum, hippocampus, cerebellum) after […] of having administered the compounds. […] The supernatants were collected and the protein concentration was measured using the Dc protein assay kit (Bio-Rad, Hercules, Calif., USA) read in a 96-well plate. […]
After primary antibody incubation, membranes were washed with TBS-T and incubated for 1 hour at room temperature with the appropriate horseradish peroxidase-conjugated secondary antibody (1:2000; Promega, Madison, Wis., USA), and the reaction was finally visualized with the Western Blotting Luminol Reagent (Santa Cruz Biotechnology, Santa Cruz, Calif., USA). Western blot replicates were scanned and quantified using a computer-assisted densitometric analysis.

## CNCCC(Oc1ccc(CCO)cc1)c1ccccc1.Cl (single isomer, unassigned) [Example 2, 2-[4-[3-(Methylamino)-1-phenylpropoxy]phenyl]ethanol hydrochloride]
[1]; WT and fmr1 KO mice
  time exploring the familiar stimulus (FIG. 4A): significantly reduced
[1]; fmr1 KO mice
  social behavior alteration / social abnormalities: completely restored
  time exploring the novel stimulus mouse: rose at levels comparable to those detected in wild type animals
  time spent near the familiar individual (FIG. 4B): reducing
  time spent near the novel stimulus (FIG. 4B): significantly increased
[1]; wild type mice
  social recognition: did not modify
p-ERK
  p-ERK levels (ERK1/2 phosphorylation): positive significant increase; also recorded: trend for an increase
